Tests used:
Test in all cases: relative viability (nuclei count vs DMSO), 5 days (fraction); higher = more cells survive
CAL-12T = tested on: CAL-12T
Method in brief: (§1)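 Lung cancer cell lines were seeded in 1536-well plates and dosed by pin tool the next day, with either a single drug or a fixed anchor-drug dose combined with five library-drug doses (not always all listed) spaced in √10 steps. Five days later, one step fixed the cells and stained their nuclei (final 0.05% Triton X-100, 1% formaldehyde, 1 ug/ml Hoechst), and nuclei were counted on 4× images. Relative viability is the nuclei count in treated wells divided by the count in vehicle wells, and each value is the median of duplicate plates.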

NCI-H596 = tested on: NCI-H596
Method in brief: as §1

201T = tested on: 201T
Method in brief: as §1

PC-3 [JPC-3] = tested on: PC-3 [JPC-3]
Method in brief: as §1

NCI-H1650 = tested on: NCI-H1650
Method in brief: as §1

NCI-H727 = tested on: NCI-H727
Method in brief: as §1

NCI-H520 = tested on: NCI-H520
Method in brief: as §1

NCI-H460 = tested on: NCI-H460
Method in brief: as §1

NCI-H1944 = tested on: NCI-H1944
Method in brief: as §1

NCI-H650 = tested on: NCI-H650
Method in brief: as §1

NCI-H2087 = tested on: NCI-H2087
Method in brief: as §1

A-427 = tested on: A-427
Method in brief: as §1

BEN = tested on: BEN
Method in brief: as §1

H3255 = tested on: H3255
Method in brief: as §1

NCI-H1651 = tested on: NCI-H1651
Method in brief: as §1

ABC-1 = tested on: ABC-1
Method in brief: as §1

LCLC-97TM1 = tested on: LCLC-97TM1
Method in brief: as §1

NCI-H1915 = tested on: NCI-H1915
Method in brief: as §1

NCI-H2023 = tested on: NCI-H2023
Method in brief: as §1

NCI-H661 = tested on: NCI-H661
Method in brief: as §1

LC-2-ad = tested on: LC-2-ad
Method in brief: as §1

NCI-H441 = tested on: NCI-H441
Method in brief: as §1

CCN(CC)CCCCNc1ncc2cc(-c3cc(OC)cc(OC)c3)c(NC(=O)NC(C)(C)C)nc2n1 + O=C(CCCCCCC(=O)Nc1ccccc1)NO [Vorinostat] (partner 1 µM)
relative viability (CAL-12T; first compound 0.01 µM): 0.784 | relative viability (CAL-12T; first compound 0.03162 µM): 0.702 | relative viability (CAL-12T; first compound 0.1 µM): 0.766 | relative viability (CAL-12T; first compound 0.3162 µM): 0.778 | relative viability (CAL-12T; first compound 1 µM): 0.845 | relative viability (NCI-H596; first compound 0.01 µM): 0.658 | relative viability (NCI-H596; first compound 0.03162 µM): 0.699 | relative viability (NCI-H596; first compound 0.1 µM): 0.597 | relative viability (NCI-H596; first compound 0.3162 µM): 0.625 | relative viability (NCI-H596; first compound 1 µM): 0.579 | relative viability (201T; first compound 0.01 µM): 1 | relative viability (201T; first compound 0.03162 µM): 1.03 | relative viability (201T; first compound 0.1 µM): 0.973 | relative viability (201T; first compound 0.3162 µM): 0.981 | relative viability (201T; first compound 1 µM): 0.887 | relative viability (PC-3 [JPC-3]; first compound 0.03162 µM): 0.659 | relative viability (PC-3 [JPC-3]; first compound 0.1 µM): 0.937 | relative viability (PC-3 [JPC-3]; first compound 0.3162 µM): 1.18 | relative viability (PC-3 [JPC-3]; first compound 1 µM): 0.698 | relative viability (NCI-H1650; first compound 0.01 µM): 0.625 | relative viability (NCI-H1650; first compound 0.03162 µM): 0.616 | relative viability (NCI-H1650; first compound 0.1 µM): 0.531 | relative viability (NCI-H1650; first compound 0.3162 µM): 0.655 | relative viability (NCI-H1650; first compound 1 µM): 0.432 | relative viability (NCI-H727; first compound 0.01 µM): 1.2 | relative viability (NCI-H727; first compound 0.03162 µM): 1.09 | relative viability (NCI-H727; first compound 0.1 µM): 1.47 | relative viability (NCI-H727; first compound 0.3162 µM): 1.23 | relative viability (NCI-H727; first compound 1 µM): 1.23 | relative viability (NCI-H520; first compound 0.01 µM): 0.783 | relative viability (NCI-H520; first compound 0.03162 µM): 0.731 | relative viability (NCI-H520; first compound 0.1 µM): 0.673 | relative viability (NCI-H520; first compound 0.3162 µM): 0.633 | relative viability (NCI-H520; first compound 1 µM): 0.273 | relative viability (NCI-H460; first compound 0.01 µM): 0.817 | relative viability (NCI-H460; first compound 0.03162 µM): 0.793 | relative viability (NCI-H460; first compound 0.1 µM): 1.39 | relative viability (NCI-H460; first compound 0.3162 µM): 0.763 | relative viability (NCI-H460; first compound 1 µM): 0.557 | relative viability (NCI-H1944; first compound 0.01 µM): 0.536 | relative viability (NCI-H1944; first compound 0.03162 µM): 0.676 | relative viability (NCI-H1944; first compound 0.1 µM): 0.596 | relative viability (NCI-H1944; first compound 0.3162 µM): 0.576 | relative viability (NCI-H1944; first compound 1 µM): 0.521 | relative viability (NCI-H650; first compound 0.01 µM): 0.349 | relative viability (NCI-H650; first compound 0.03162 µM): 0.433 | relative viability (NCI-H650; first compound 0.1 µM): 0.498 | relative viability (NCI-H650; first compound 0.3162 µM): 0.525 | relative viability (NCI-H650; first compound 1 µM): 0.422 | relative viability (NCI-H2087; first compound 0.01 µM): 0.669 | relative viability (NCI-H2087; first compound 0.03162 µM): 0.71 | relative viability (NCI-H2087; first compound 0.1 µM): 0.893 | relative viability (NCI-H2087; first compound 0.3162 µM): 0.886 | relative viability (NCI-H2087; first compound 1 µM): 0.514 | relative viability (A-427; first compound 0.01 µM): 0.806 | relative viability (A-427; first compound 0.03162 µM): 0.919 | relative viability (A-427; first compound 0.1 µM): 1.02 | relative viability (A-427; first compound 0.3162 µM): 0.926 | relative viability (A-427; first compound 1 µM): 0.817 | relative viability (BEN; first compound 0.01 µM): 0.617 | relative viability (BEN; first compound 0.03162 µM): 0.547 | relative viability (BEN; first compound 0.1 µM): 0.579 | relative viability (BEN; first compound 0.3162 µM): 0.544 | relative viability (BEN; first compound 1 µM): 0.546 | relative viability (H3255; first compound 0.01 µM): 0.702 | relative viability (H3255; first compound 0.1 µM): 0.946 | relative viability (H3255; first compound 0.3162 µM): 1.02 | relative viability (H3255; first compound 1 µM): 0.785 | relative viability (NCI-H1651; first compound 0.01 µM): 0.541 | relative viability (NCI-H1651; first compound 0.03162 µM): 0.626 | relative viability (NCI-H1651; first compound 0.1 µM): 0.582 | relative viability (NCI-H1651; first compound 0.3162 µM): 0.674 | relative viability (NCI-H1651; first compound 1 µM): 0.475 | relative viability (ABC-1; first compound 0.03162 µM): 0.99 | relative viability (ABC-1; first compound 0.1 µM): 1.35 | relative viability (ABC-1; first compound 0.3162 µM): 1.01 | relative viability (ABC-1; first compound 1 µM): 1.09 | relative viability (LCLC-97TM1; first compound 0.01 µM): 0.805 | relative viability (LCLC-97TM1; first compound 0.03162 µM): 0.779 | relative viability (LCLC-97TM1; first compound 0.1 µM): 0.615 | relative viability (LCLC-97TM1; first compound 0.3162 µM): 0.865 | relative viability (LCLC-97TM1; first compound 1 µM): 0.699 | relative viability (NCI-H1915; first compound 0.01 µM): 0.452 | relative viability (NCI-H1915; first compound 0.03162 µM): 0.531 | relative viability (NCI-H1915; first compound 0.1 µM): 0.537 | relative viability (NCI-H1915; first compound 0.3162 µM): 0.456 | relative viability (NCI-H1915; first compound 1 µM): 0.513 | relative viability (NCI-H2023; first compound 0.01 µM): 0.534 | relative viability (NCI-H2023; first compound 0.03162 µM): 0.756 | relative viability (NCI-H2023; first compound 0.1 µM): 0.686 | relative viability (NCI-H2023; first compound 0.3162 µM): 0.6 | relative viability (NCI-H2023; first compound 1 µM): 0.567 | relative viability (NCI-H661; first compound 0.01 µM): 0.781 | relative viability (NCI-H661; first compound 0.03162 µM): 0.757 | relative viability (NCI-H661; first compound 0.1 µM): 0.856 | relative viability (NCI-H661; first compound 0.3162 µM): 0.839 | relative viability (NCI-H661; first compound 1 µM): 0.741 | relative viability (LC-2-ad; first compound 0.01 µM): 0.716 | relative viability (LC-2-ad; first compound 0.03162 µM): 0.798 | relative viability (LC-2-ad; first compound 0.1 µM): 0.76 | relative viability (LC-2-ad; first compound 0.3162 µM): 0.739 | relative viability (LC-2-ad; first compound 1 µM): 0.66 | relative viability (NCI-H441; first compound 0.01 µM): 0.863 | relative viability (NCI-H441; first compound 0.03162 µM): 0.829 | relative viability (NCI-H441; first compound 0.1 µM): 0.811 | relative viability (NCI-H441; first compound 0.3162 µM): 0.776 | relative viability (NCI-H441; first compound 1 µM): 0.826
